Broadly, the IC50 is the concentration that gives 50% inhibition.

Assay [1] addresses T1, Human P2X7 (hP2X7) receptor (Homo sapiens, UniProt Q99572).
T1 construct: myc-His (from the pcDNA3.1/myc-HisA vector); expressed in transfected cells
T1 sequence (Q99572 1-595): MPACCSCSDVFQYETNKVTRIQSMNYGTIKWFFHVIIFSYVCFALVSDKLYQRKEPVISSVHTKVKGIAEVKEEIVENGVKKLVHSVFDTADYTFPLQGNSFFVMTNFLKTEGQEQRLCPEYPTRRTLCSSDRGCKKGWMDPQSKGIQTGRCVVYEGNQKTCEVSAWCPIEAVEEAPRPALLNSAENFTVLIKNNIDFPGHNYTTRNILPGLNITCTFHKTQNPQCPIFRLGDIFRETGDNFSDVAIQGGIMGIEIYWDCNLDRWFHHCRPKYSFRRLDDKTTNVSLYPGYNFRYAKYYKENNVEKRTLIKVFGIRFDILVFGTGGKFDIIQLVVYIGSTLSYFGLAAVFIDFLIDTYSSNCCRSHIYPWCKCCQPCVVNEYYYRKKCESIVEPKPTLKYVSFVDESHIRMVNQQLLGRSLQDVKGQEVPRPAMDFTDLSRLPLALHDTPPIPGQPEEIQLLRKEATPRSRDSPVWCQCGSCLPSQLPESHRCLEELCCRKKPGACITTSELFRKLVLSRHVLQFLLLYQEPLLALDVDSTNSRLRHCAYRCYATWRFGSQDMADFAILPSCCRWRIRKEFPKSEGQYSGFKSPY
Briefly: Dye assay: BzATP-induced Yo-Pro-1 uptake in HEK293 cells stably expressing hP2X7. In kind it is cell-based. The conditions noted are these: 90 min incubation. The method, boiled down:
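HEK293 cells stably expressing cloned human P2X7 (595 aa) were preincubated 30 min with compound, then given 2 μM Yo-Pro-1 and 0.1 mM BzATP (final) for 90 min. Dye uptake read by fluorescence (ex 485/em 535 nm); IC50 derived from % inhibition versus log concentration.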

The subject of assay [2] is IL-1β in supernatants of peripheral blood mononuclear cells. Briefly: IL-1β assay: BzATP- or ATP-induced IL-1β release from LPS-treated human peripheral blood mononuclear cells. In kind it is cell-based. The settings on record: 2 h; IL-1β in supernatants of LPS-treated human PBMC; BzATP (1 mM) or ATP (5 mM), 120 min. The procedure: Human whole blood from healthy volunteers was diluted with equal volume of saline and peripheral blood mononuclear cells were collected by using a Limphoprep tube (Daiichi Pure Chemicals), washed with physiological saline and seeded onto a 96-well plate with a medium containing 1-10 ng/mL LPS (SIGMA). 30 minutes later, the cells were treated with varying concentrations of various compounds and incubated for 30 minutes. Then, the cells were treated with BzATP (final concentration 1 mM) or ATP (final concentration 5 mM) and incubated for 120 minutes. The cells were centrifugated to collect supernatents, and the concentration of IL-1β in supernatants were determined by IL-1β HTRF kit (CIS biointernational). The % inhibition rates were calculated and plotted against the logarithms of the concentrations to determine IC50.

[3] abbreviates: BzATP (0.1 mM)-induced Yo-Pro-1 uptake, compounds 30 min pre-treatment.
Setting [4] is: BzATP 0.1 mM, Yo-Pro-1 2 μM, 30 min pre-treatment.

Turning to `CC(NC(=O)Cn1ncc(N[C@@H]2C[C@@H]3C[C@H]([C@H]2C)C3(C)C)c(Br)c1=O)c1ccncc1` (stereo partly drawn) [compound 39], the half-inhibitory concentration (IC50) stood at 6.3 nM in assay [1] (setting [3]) and 19 nM in assay [2].

Turning to `CCN(CC)c1ccc(C(=O)Cn2ncc(N[C@@H]3C[C@@H]4C[C@H]([C@H]3C)C4(C)C)c(Br)c2=O)cc1` [compound 84], the IC50 was determined as 4.1 nM in assay [1] (setting [3]) and 82 nM in assay [2].

On to `CCC(NC(=O)Cn1ncc(N[C@@H]2C[C@@H]3C[C@H]([C@H]2C)C3(C)C)c(Br)c1=O)c1ccncc1` (stereo partly drawn) [compound 171], for which the half-maximal inhibitory concentration (IC50) in assay [1] (setting [3]) stood at 4.3 nM; in assay [2], 33 nM.

For the compound `CC1C(Nc2cnn(CC(=O)NCc3ccnnc3)c(=O)c2Br)CC2CC1C2(C)C` (stereo not drawn) [compound 214], the IC50 in assay [1] (setting [3]) stood at 3.9 nM; in assay [2], 39 nM.

With `COc1cnccc1CNC(=O)Cn1ncc(N[C@@H]2C[C@@H]3C[C@H]([C@H]2C)C3(C)C)c(Br)c1=O` [compound 216], the IC50 in assay [1] (setting [3]) is 12 nM; in assay [2], 38 nM.

Regarding `C[C@@H]1[C@H]2C[C@@H](C[C@H]1Nc1cnn(CC(=O)N[C@H](C)c3ccncc3)c(=O)c1Cl)C2(C)C` [compound 230], the IC50 in assay [1] (setting [3]) is 2.8 nM; in assay [2], 3.1 nM.

Regarding `CC(NC(=O)Cn1ncc(N[C@@H]2C[C@@H]3C[C@H]([C@H]2C)C3(C)C)c(Cl)c1=O)c1ccncc1Cl` (stereo partly drawn) [compound 264], the IC50 was found to be 1.4 nM in assay [1] (setting [3]) and 3.3 nM in assay [2].

As to `C[C@@H]1[C@H]2C[C@@H](C[C@H]1Nc1cnn(CC(=O)NCc3ccncc3N(C)C)c(=O)c1Cl)C2(C)C` [compound 277], the half-inhibitory concentration (IC50) in assay [1] (setting [3]) was 3.7 nM; in assay [2] it was 4.3 nM.

In the case of `O=C(Cn1ncc(NC2C3CCCC2CCC3)c(Br)c1=O)NCc1ccncc1` (stereo not drawn) [compound 325], the values for the 50% inhibitory concentration (IC50) in assay [1] (setting [3]) and in assay [2] were 8.9 nM and 40 nM, respectively.

Turning to `CCC(NC(=O)Cn1ncc(N[C@@H]2C[C@@H]3C[C@@H](C3(C)C)[C@]2(C)O)c(Br)c1=O)c1ccncc1` (stereo partly drawn) [compound 358], the IC50 stood at 10 nM in assay [1] (setting [3]) and 38 nM in assay [2].

Turning to `CC(NC(=O)Cn1ncc(NC2C3CCCC2CCC3)c(Cl)c1=O)c1ccncc1Cl` (stereo not drawn) [compound 378], the IC50 in assay [1] (setting [3]) and in assay [2] was 1.5 nM in each case.

As to `Cc1cnncc1CNC(=O)Cn1ncc(N[C@@H]2C[C@@H]3C[C@H]([C@H]2C)C3(C)C)c(Cl)c1=O` [compound 432], the IC50 in assay [1] (setting [4]) was 2.1 nM; in assay [2], 17 nM.

As to `C[C@@H]1[C@H]2C[C@@H](C[C@H]1Nc1cnn(CC(=O)NCc3ccnnc3Cl)c(=O)c1Cl)C2(C)C` [compound 433], the IC50 in assay [1] (setting [4]) was determined as 6.2 nM; in assay [2] it was 51 nM.

Regarding `C[C@@H]1[C@H]2C[C@@H](C[C@H]1Nc1cnn(CC(=O)NCc3ccnnc3N(C)C)c(=O)c1Cl)C2(C)C` [compound 435], the IC50 in assay [1] (setting [4]) was 3.2 nM; in assay [2], 36 nM.

With `C[C@@H]1[C@H]2C[C@@H](C[C@H]1Nc1cnn(CC(=O)NCc3ccncc3S(C)(=O)=O)c(=O)c1Cl)C2(C)C` [compound 442], the 50% inhibitory concentration (IC50) in assay [1] (setting [4]) amounted to 1.7 nM; in assay [2] it was 27 nM.
